The solubility is the dissolved amount per volume that the medium holds.

Structures are written as SMILES.

The source of these data is PMC10052035, “Virtual Screening, Structural Analysis, and Formation Thermodynamics of Carbamazepine Cocrystals” (Pharmaceutics, 2023).

Series [1] can be described thus: Solubility of cocrystals and their constituents in organic solvents (shake-flask, HPLC). To be noted: for solubility at 48 h: organic solvent or mixture, thermodynamic from solid; for Cp∙10^2, solubility of pure component: 293.15 K, value is C∙10^2. The method, then:
For the [CBZ + 3AcAmBA] (1:1) cocrystal, methanol was used. For [CBZ + 4AcAmBA] (1:1), all the experiments were performed in acetonitrile. An excess of the solid was placed in an Eppendorf tube, and 2 mL of solvent was added. The resulting suspension was shaken in a ThermoMixer C (Eppendorf, Hamburg, Germany) at 800 rpm for 48 h at the specified temperature. Subsequently, the saturated solution was separated using a 0.22 μm PTEF filter, diluted, and analyzed using HPLC. The solid phases after the experiment were collected and characterized by PXRD. Each experiment was repeated three times.
The HPLC was performed on an LC-20 AD Shimadzu Prominence model (Shimadzu, Kyoto, Japan) equipped with a PDA detector and a Luna C-18 column (150 mm × 4.6 mm i.d., 5 μm particle size, and 100 Å pore size). The column temperature was set to 40 °C. To achieve the proper separation of the cocrystal components, different ratios of the mobile phase, consisting of acetonitrile and a 0.1% aqueous solution of trifluoroacetic acid (35:65 v/v), were used. The flow rate was 1.0 mL·min^−1, and the injection volume was 20 μL. The UV detection of carbamazepine, 2-acetamidobenzoic acid, 3-acetamidobenzoic acid, and 4-acetamidobenzoic acid was carried out at the wavelengths of 285 nm, 249 nm, 220 nm, and 266 nm, respectively.

Details of series [2]: method as in doi:10.1016/j.molliq.2021.118320. To be noted: pH 2.0, 310.2 K; value belongs to the coformer of the cocrystal named in the row; ref [103]; cited from earlier work.

Regarding `CC(=O)Nc1cccc(C(=O)O)c1` [Cocrystal 3AcAmBA, 3-acetamidobenzoic acid], the solubility at 48 h was found to be 4.3 ± 1 mM in series [1] (acetonitrile, 20 °C); 75 ± 0.5 mM in series [1] (methanol, 20 °C); 87 ± 0.5 mM in series [1] (methanol, 25 °C); 97 ± 0.5 mM in series [1] (methanol, 30 °C); 109 ± 0.8 mM in series [1] (methanol, 35 °C); 119.5 ± 0.6 mM in series [1] (methanol, 40 °C). In addition, the “Cp∙10^2, solubility of pure component” value in series [1] (methanol) turned out to be 7.50±0.05 mol/l. For the same compound, the “S0(CF), intrinsic solubility of coformer” value in series [2] was 4.1 mM.

With `CC(=O)Nc1ccc(C(=O)O)cc1` [Cocrystal 4AcAmBA, 4-acetamidobenzoic acid], the “solubility ratio Cp,CBZ/Cp,coformer” value in series [1] (48 h) turned out to be 14.1. For the same compound, the solubility at 48 h in series [1] (acetonitrile, 20 °C) was 10.1 ± 0.1 mM; in series [1] (acetonitrile, 25 °C), 11.45 ± 0.05 mM; in series [1] (acetonitrile, 30 °C), 12.8 ± 0.07 mM; in series [1] (acetonitrile, 35 °C), 14.73 ± 0.07 mM; in series [1] (acetonitrile, 40 °C), 16.6 ± 0.3 mM. In addition, in series [1] (acetonitrile), the “Cp∙10^2, solubility of pure component” value is on record as 1.010±0.010 mol/l. Further, in series [2], the “S0(CF), intrinsic solubility of coformer” value is 4.6 mM.
